{
  "source": "patent US20070219220A1",
  "about": "“Pyrazolopyrimidinethione Derivatives, Salts and Solvates Thereof, Preparation Methods and Use Thereof” (priority 2003, published 2007)",
  "key": {"mice with testis removed": {"test_system": "mice with testis removed", "assay": "Sexual function (back climbing) of testis-removed mice (Example 10)", "assay_type": "in vivo, KM mice", "settings": "for Incidence: back climbing within 2 hours after administration; for Times of back climbing / Number of the animals who performed back climbing: within 2 hours after administration; for Number of the animals who performed back climbing: 10 male mice", "excerpt": "Methods: Forty healthy KM male mice with the body weight ranging from 28-32 g and forty healthy KM female mice with body weight ranging from 24-28 g were used. Each male mouse was anesthetized with sodium pentobarbital, and the testes were squeezed into the scrotum. After sterilization, the scrotum was dissected with an operating knife. The testes and epididymis were respectively taken out, and then ligated. The wound were sutured and each of the mice was administrated with 100,000 units of penicillin for three consecutive days. After being bred for one week, the mice were used for the tests. The animals may be employed repeatedly and the interval between any two tests was 72 hours. To the mice, the following compounds were orally administered: compound (1), compound (2), compound (3), and compound (4), each at the dose of 80 mg/kg and 40 mg/kg, respectively. The positive control agent was Sildenafil, at the dose of 80 mg/kg. The control group was given with 1% of sodium carboxymethyl cellulose. At 30 min after the administration, the male mice who had taken the above agents were put into the cages of female mice, with the male-to-female rate of 1:1. There were three males and three females in each cage. The times of back climbing on the female mice performed by the male mice, and the percentage of occurrence were observed within 2 hours after the administration."}, "rats with testis removed [1]": {"test_system": "rats with testis removed", "assay": "Duration of penile erection in rats with testis removed (Example 8)", "assay_type": "in vivo, wistar rats"}, "rats with testis removed [2]": {"test_system": "rats with testis removed", "assay": "Penile erection caused by stimulating electric current in rats with testes removed (Example 7)", "assay_type": "in vivo, wistar rats", "settings": "for Latent period / Swelling time: stimulation 35 min after administration", "excerpt": "Methods: Forty healthy adult male wistar rats were used in the study, with the body weight ranging from 230 g to 250 g. The rats were anesthetized with sodium pentobarbital, and their testes were squeezed into the scrotum. After sterilization, the scrotum was dissected with an operation knife. The testes and epididymis were taken out respectively and then ligated. The wound were sutured and 100,000 unit of penicillin was administrated to each rat for three consecutive days. After breeding for one week, the rats were used for the tests. The animals may be used repeatedly and the interval between any two of the tests was one week. […] Sildenafil at the dose of 50 mg/kg was used as the positive control. The control group is (1% sodium carboxymethyl cellulose). In 35 min after the administration, the penis of the rats was stimulated with SEN-3201 stimulator (NIHON KOHDEN, Japan), with the following parameters: the stimulating voltage of 10V, the time interval (T1) of 250 msec, the deferment time (T2) of 10 msec, the duration (T3) of 500 μsec, and the stimulation rank (n) of 25. At the same time, the latent period (sec) of the penile erection and the penile swelling time (min) were recorded with a three-channel stop-watch."}, "[3]": {"assay": "Preliminary acute toxicity, Bliss method (Example 13)", "settings": "rat, in vivo, oral and intragastric administration, rats", "description": "Experimental methods: the toxicity test was conducted by oral and intragastric administration of the pyrazolopyrimidinethione derivatives of the invention using the Bliss method."}, "anesthetized dogs": {"test_system": "anesthetized dogs", "assay": "Blood pressure, heart rate and respiration of anesthetized dogs (Example 11)", "assay_type": "in vivo", "settings": "oral 40 mg/kg; in 3 hours after administration", "description": "Methods: eight healthy male dogs with the body weight ranging from 12-15 kg were used. The dogs were anesthetized with 30 mg/kg of sodium pentobarbital. The femoral artery was dissected and inserted with a blood pressure transducer to record the blood pressure. The limbs were pierced with electrodes for recording the electrocardiogram. The respiration belt was wrapped around their chest and the respiration rate was recorded. The apparatus used was RM-6000 Polygraph system (NIHON KOHDEN, Japan). The changes in the arterial blood pressure, the heart rate, and the respiration were observed after the test compound was introduced into the stomach of the anesthetized dogs via 14# catheter."}},
  "note": "Marks after values point to notes of the source that are not given here.",
  "data": [
    {"smiles": "CCCc1nn(C)c2c(=S)[nH]c(-c3cc(S(=O)(=O)N4C[C@@H](C)N[C@@H](C)C4)ccc3OCC)nc12", "note": "[Compound (2), 5-[2-ethoxy-5-(cis-3,5-dimethylpiperazin-1-sulfonyl)phenyl]-1-methyl-3-n-propyl-1,6-dihydro-7H-pyrazolo[4,3-d]pyrimidin-7-thione]", "values": [
      {"measurement": "Incidence", "setting": "mice with testis removed; oral 40 mg/kg", "result": 60, "unit": "%"},
      {"measurement": "Times of back climbing", "setting": "mice with testis removed; oral 40 mg/kg, 40 mg/kg", "result": "11*"},
      {"measurement": "Number of the animals who performed back climbing", "setting": "mice with testis removed; oral 40 mg/kg", "result": "6*"},
      {"measurement": "Times of back climbing", "setting": "mice with testis removed; oral 40 mg/kg, listed as compound (2), 40 mg/kg", "result": 11},
      {"measurement": "Incidence", "setting": "mice with testis removed; oral 80 mg/kg", "result": 80, "unit": "%"},
      {"measurement": "Times of back climbing", "setting": "mice with testis removed; oral 80 mg/kg, 80 mg/kg", "result": "20**"},
      {"measurement": "Number of the animals who performed back climbing", "setting": "mice with testis removed; oral 80 mg/kg", "result": "8**"},
      {"measurement": "Times of back climbing", "setting": "mice with testis removed; oral 80 mg/kg, listed as compound (2), 80 mg/kg", "result": 20},
      {"measurement": "Penile swelling time", "setting": "rats with testis removed [1]; oral 10 mg/kg, at 1 h after administration", "result": "679.6 ± 13.2", "unit": "s"},
      {"measurement": "Penile swelling time", "setting": "rats with testis removed [1]; oral 10 mg/kg, at 3 h after administration", "result": "544.7 ± 166.9", "unit": "s"},
      {"measurement": "Penile swelling time", "setting": "rats with testis removed [1]; oral 10 mg/kg, at 6 h after administration", "result": "268.7 ± 146.2", "unit": "s"},
      {"measurement": "Penile swelling time", "setting": "rats with testis removed [1]; oral 10 mg/kg, at 24 h after administration", "result": "98.6 ± 57.9", "unit": "s"},
      {"measurement": "Penile swelling time", "setting": "rats with testis removed [1]; oral 10 mg/kg, value before administration", "result": "67.7 ± 12.3", "unit": "s"},
      {"measurement": "Penile swelling time", "setting": "rats with testis removed [1]; oral 20 mg/kg, at 1 h after administration", "result": "1514.8 ± 258.9", "unit": "s"},
      {"measurement": "Penile swelling time", "setting": "rats with testis removed [1]; oral 20 mg/kg, at 3 h after administration", "result": "906.0 ± 406.7", "unit": "s"},
      {"measurement": "Penile swelling time", "setting": "rats with testis removed [1]; oral 20 mg/kg, at 6 h after administration", "result": "275.8 ± 154.2", "unit": "s"},
      {"measurement": "Penile swelling time", "setting": "rats with testis removed [1]; oral 20 mg/kg, at 24 h after administration", "result": "201.0 ± 85.7", "unit": "s"},
      {"measurement": "Penile swelling time", "setting": "rats with testis removed [1]; oral 20 mg/kg, value before administration", "result": "82.4 ± 26.6", "unit": "s"},
      {"measurement": "how long the penile swelling effect lasts after administration", "setting": "rats with testis removed [1]; oral 40 mg/kg and 20 mg/kg", "result": "up to 24 hours"},
      {"measurement": "Penile swelling time", "setting": "rats with testis removed [1]; oral 40 mg/kg, at 1 h after administration", "result": "2187.1 ± 547.8", "unit": "s"},
      {"measurement": "Penile swelling time", "setting": "rats with testis removed [1]; oral 40 mg/kg, at 3 h after administration", "result": "783.0 ± 329.2", "unit": "s"},
      {"measurement": "Penile swelling time", "setting": "rats with testis removed [1]; oral 40 mg/kg, at 6 h after administration", "result": "678.7 ± 221.8", "unit": "s"},
      {"measurement": "Penile swelling time", "setting": "rats with testis removed [1]; oral 40 mg/kg, at 24 h after administration", "result": "194.0 ± 65.1", "unit": "s"},
      {"measurement": "Penile swelling time", "setting": "rats with testis removed [1]; oral 40 mg/kg, value before administration", "result": "84.0 ± 18.4", "unit": "s"},
      {"measurement": "penile swelling time (in words)", "setting": "rats with testis removed [2]; compared with control", "result": "lengthened"},
      {"measurement": "latent period of the penile erection (in words)", "setting": "rats with testis removed [2]; compared with control, P<0.001", "result": "evidently shortened"},
      {"measurement": "penile swelling time compared with positive control sildenafil (in words)", "setting": "rats with testis removed [2]; compared with sildenafil 50 mg/kg", "result": "more evident"},
      {"measurement": "Latent period", "setting": "rats with testis removed [2]; oral 10 mg/kg", "result": "29.5 ± 4.2", "unit": "s"},
      {"measurement": "Swelling time", "setting": "rats with testis removed [2]; oral 10 mg/kg", "result": "1069.8 ± 621.5", "unit": "s"},
      {"measurement": "Latent period", "setting": "rats with testis removed [2]; oral 20 mg/kg", "result": "29.5 ± 4.2", "unit": "s"},
      {"measurement": "Swelling time", "setting": "rats with testis removed [2]; oral 20 mg/kg", "result": "1480.5 ± 469.7", "unit": "s"},
      {"measurement": "Latent period", "setting": "rats with testis removed [2]; oral 40 mg/kg", "result": "30.1 ± 3.9", "unit": "s"},
      {"measurement": "Swelling time", "setting": "rats with testis removed [2]; oral 40 mg/kg", "result": "2675.5 ± 769.2", "unit": "s"},
      {"measurement": "LD50", "setting": "[3]", "result": "> 3000", "unit": "mg/kg"},
      {"measurement": "arterial blood pressure (systolic and diastolic), heart rate and respiration (frequency and depth), in words", "setting": "anesthetized dogs", "result": "did not experience an evident change"}
    ]}
  ]
}
